Measurements: BindingDB's records for doi:10.1021/jm800566m (Gsk, 2008)

assay: The assay uses purified baculovirus-expressed GST-VEGFR2 interacting with biotinylated peptide substrates. HTRF is based on the proximity of europium cryptate (donor fluorophore)-labeled antiphosphotyrosine and streptavidin labeled with APC (allophycocyanin), which have been brought together by a binding reaction.; details: pH 7.5

Row | SMILES | IC50 [nM]
1 | Cc1nc2cc(N(C)c3ccnc(Nc4cccc(S(N)(=O)=O)c4)n3)ccc2n1C [3-({4-[(1,2-dimethyl-1H-1,3-benzodiazol-5-yl)(methyl)amino]pyrimidin-2-yl}amino)benzene-1-sulfonamide] | 17
2 | Cc1nc2ccc(N(C)c3ccnc(Nc4cccc(S(N)(=O)=O)c4)n3)cc2n1C [3-({4-[(1,2-dimethyl-1H-1,3-benzodiazol-6-yl)(methyl)amino]pyrimidin-2-yl}amino)benzene-1-sulfonamide] | 63
3 | Cc1nn(C)c2cc(N(C)c3ccnc(Nc4cccc(S(N)(=O)=O)c4)n3)ccc12 [3-({4-[(1,3-dimethyl-1H-indazol-6-yl)(methyl)amino]pyrimidin-2-yl}amino)benzene-1-sulfonamide] | 36
4 | CN(c1ccc2cn(C)nc2c1)c1ccnc(Nc2cccc(S(N)(=O)=O)c2)n1 [3-({4-[methyl(2-methyl-2H-indazol-6-yl)amino]pyrimidin-2-yl}amino)benzene-1-sulfonamide] | 7.6

Stronger by IC50, values ahead:

Row | IC50 [nM] | SMILES
5 | 5.6 | Cc1c2ccc(N(C)c3ccnc(Nc4cccc(S(N)(=O)=O)c4)n3)cc2nn1C [3-({4-[(2,3-dimethyl-2H-indazol-6-yl)(methyl)amino]pyrimidin-2-yl}amino)benzene-1-sulfonamide]
6 | 2.6 | Cc1c2ccc(N(C)c3ccnc(Nc4cccc(S(N)(=O)=O)c4)n3)cc2nn1Cc1ccccc1 [3-({4-[(2-benzyl-3-methyl-2H-indazol-6-yl)(methyl)amino]pyrimidin-2-yl}amino)benzene-1-sulfonamide]
7 | 0.6 | Cc1n[nH]c2cc(N(C)c3ccnc(Nc4cccc(S(N)(=O)=O)c4)n3)ccc12 [3-({4-[methyl(3-methyl-1H-indazol-6-yl)amino]pyrimidin-2-yl}amino)benzene-1-sulfonamide]
